Results reported in patent US6703506B2, “Amino acid ester containing azole antifungals” (Janssen Pharmaceutica, N.V., priority 1997, dated 2004).
Converted amounts (≈) assume the structure as drawn.

Assays:
[1] = Solubility (excess compound shaken 1 day at room temperature, HPLC); assay type: physicochemical; conditions: thermodynamic from solid
Protocol: An excess of compound was added to the solvent (the type of solvent is specified in table 6) The mixture was shaken during 1 day at room temperature. The precipitate was filtered off. The concentration of the compound was measured via HPLC and is shown in the column “Solubility”.

[2] = Chemical stability (open glass jar, 40° C., 75% relative humidity); assay type: physicochemical; conditions: 50 mg, after one week
Protocol: After one week, the amount of test compound remaining was determined.

Aspergillus fumigatus [3] = experiment: Determination of fungal susceptibility (MIC); assay type: cell-based; conditions: CYG medium, 5 days at 30° C., growth to 35% of control or less
Protocol: (§1) A panel of Candida isolates plus single isolates of the dermatophytes Microsporum canis, Trichophyton rubrum and T. mentagrophytes; Aspergillus fumigates, and Cryptococcus neoformans were used to evaluate the activity of the test compounds in vitro. Inocula were prepared as broth cultures (yeasts) or as suspensions of fungal material made from agar slope cultures (moulds). The test compounds were pipetted from DMSO stock solution into water to provide a series of 10-fold dilutions. The fungal inocula were suspended in the growth medium CYG (F. C. Odds, Journal of Clinical Microbiology, 29, (2735-2740, 1991) at approximately 50,000 colony-forming units (CFU) per ml and added to the aqueous test drugs. The cultures were set up in the 96 wells of plastic microdilution plates and they were incubated for 2 days at 37° C. (Candida spp.) or for 5 days at 30° C. (other fungi). Growth in the microcultures was measured by their optical density (OD) measured at a wavelength of 405 nm. The OD for cultures with test compounds was calculated as a percentage of the control, drug-free OD. Inhibition of growth to 35% of control or less was recorded as significant inhibition.
(§2) Minimal inhibitory concentration (MICs; in 10^−6 M) of intermediate 2 as the major metabolite and some of the compounds of formula (I) for Candida glabrata, Candida krusel, Candida parapsilosis, Candida albicans, Candida kefyr, Candida tropicalis, Microsporum canis, Trichophyton rubrum, Trichophyton mentagrophytes, Cryptococcus neoformans, Aspergillus fumigatus are listed in table 8.

Candida albicans [4] = experiment: Determination of fungal susceptibility (MIC); assay type: cell-based; conditions: CYG medium, 2 days at 37° C., growth to 35% of control or less
Protocol: as §1, §2

Candida glabrata = experiment: Determination of fungal susceptibility (MIC); assay type: cell-based; conditions: CYG medium, 2 days at 37° C., growth to 35% of control or less
Protocol: as §1, §2

Candida kefyr = experiment: Determination of fungal susceptibility (MIC); assay type: cell-based; conditions: CYG medium, 2 days at 37° C., growth to 35% of control or less
Protocol: as §1, §2

Candida krusei = experiment: Determination of fungal susceptibility (MIC); assay type: cell-based; conditions: CYG medium, 2 days at 37° C., growth to 35% of control or less
Protocol: as §1, §2

Candida parapsilosis = experiment: Determination of fungal susceptibility (MIC); assay type: cell-based; conditions: CYG medium, 2 days at 37° C., growth to 35% of control or less
Protocol: as §1, §2

Candida tropicalis = experiment: Determination of fungal susceptibility (MIC); assay type: cell-based; conditions: CYG medium, 2 days at 37° C., growth to 35% of control or less
Protocol: as §1, §2

Cryptococcus neoformans = experiment: Determination of fungal susceptibility (MIC); assay type: cell-based; conditions: CYG medium, 5 days at 30° C., growth to 35% of control or less
Protocol: as §1, §2

Microsporum canis = experiment: Determination of fungal susceptibility (MIC); assay type: cell-based; conditions: CYG medium, 5 days at 30° C., growth to 35% of control or less
Protocol: as §1, §2

[5] = system: Trichophyton mentagrophytes; experiment: Determination of fungal susceptibility (MIC); assay type: cell-based; conditions: CYG medium, 5 days at 30° C., growth to 35% of control or less
Protocol: as §1, §2

Trichophyton rubrum = experiment: Determination of fungal susceptibility (MIC); assay type: cell-based; conditions: CYG medium, 5 days at 30° C., growth to 35% of control or less
Protocol: as §1, §2

Aspergillus fumigatus [6] = experiment: Disseminated aspergillosis in guinea-pigs; assay type: in vivo; conditions: for CFU/g (liver): culture-positive livers post mortem; for % neg (total percentage culture-negative deep tissues): liver, spleen, kidney, lung and brain
Protocol: (§3) Specific pathogen-free (SPF) guinea-pigs (weighing 400-500 g) were used in all experiments. A catheter was placed into the left jugular vein of the animals that were treated by intravenous infusion, the vein was ligated, and the catheter was connected to a microprocessor-controlled infusion pump. The animals were infected with Aspergillus fumigatus (4,000 CFU/g body weight) or with Candida albicans (40,000 CFU/g body weight) either via the lateral vein of the penis or via the implanted catheter. Intravenous treatments (5 mg/kg/day) began 1 hour after infection. The test formulations were then administered on subsequent days as two, 1 hour infusions daily, separated by a period of 5 hours, for a total of 19 infusions or 9.5 days. Oral treatments with the test compounds (5 mg/kg/day) begun 1 hour after infection and were repeated twice daily up to the tenth day after infection (a total of 19 treatments. For each group of tested animals (number of tested animals per group given in column “N”), the mean survival time (MST) in days was recorded as well as the % survivors (% surv). Animals of each group which died during the experiment and those that survived the experiment and were killed, were investigated for counts of Aspergillus fumigatus and Candida albicans in deep tissue (liver, spleen, kidney, lung and brain) post mortem. The remaining CFU/g in the culture-positive livers was measured and expressed in table 9 (after intravenous treatment) and table 10 (after oral treatment) as mean log10 CFU/g. The columns “%neg” in tables 9 and 10 express the total percentage culture-negative deep tissues after the treatment.

Candida albicans [7] = experiment: Disseminated candidosis in guinea-pigs; assay type: in vivo; conditions: for CFU/g (liver): culture-positive livers post mortem; for % neg (total percentage culture-negative deep tissues): liver, spleen, kidney, lung and brain
Protocol: as §3

[8] = i.v. treatment 5 mg/kg/day, 19 infusions, 9.5 days
[9] = oral treatment 5 mg/kg/day, twice daily, 19 treatments

In the case of `C[C@H](OC(=O)[C@@H](N)Cc1ccccc1)[C@H](C)n1ncn(-c2ccc(N3CCN(c4ccc(OC[C@@H]5CO[C@@](Cn6cncn6)(c6ccc(F)cc6F)O5)cc4)CC3)cc2)c1=O` (relative stereo) [Compound 23, [2S-[2α,4α[(R*,R*)]]]-2-[4-[4-[4-[4-[[2-(2,4-difluorophenyl)-2-(1H-1,2,4-triazol-1-ylmethyl)-1,3-dioxolan-4-yl]methoxy]-phenyl]-1-piperazinyl]-phenyl]-4,5-dihydro-5-oxo-1H-1,2,4-triazol-1-yl]-1-methylpropyl L-phenylalanine], the solubility at 1 day ([1]; aqueous buffer, solvent 0.0001M HCl, final pH in column pH of the same row (3.17-6.68)) was 20 µg/mL (≈ 23.9 µM), the solubility at 1 day ([1]; simulated gastric fluid, solvent 0.1M HCl, final pH in column pH of the same row (1.23-1.55)) was over 5560 µg/mL and the “Stability (amount of test compound remaining)” value [2] was 99.7%. The MIC (Aspergillus fumigatus [3]) was 1 10^−6 M, the MIC (Candida albicans [4]) was <0.1 10^−6 M and the MIC (Candida glabrata) was 10 10^−6 M. For the same compound, the MIC (Candida kefyr) was <0.1 10^−6 M, the MIC (Candida krusei) was 1 10^−6 M and the MIC (Candida parapsilosis) was <0.1 10^−6 M. For the same compound, the MIC (Candida tropicalis) was <0.1 10^−6 M, the MIC (Cryptococcus neoformans) was 1 10^−6 M and the MIC (Microsporum canis) was <1 10^−6 M. For the same compound, the MIC [5] was 1 10^−6 M, the MIC (Trichophyton rubrum) was <0.1 10^−6 M and the “CFU/g (liver)” value (Aspergillus fumigatus [6]; i.v. treatment 5 mg/kg/day) was 3.6 mean log10 CFU/g. The “CFU/g (liver)” value (Aspergillus fumigatus [6]; oral treatment 5 mg/kg/day) was 3.0 mean log10 CFU/g, the “% surv (% survivors)” value (Aspergillus fumigatus [6]; [8]) was 83.3% and the “MST (mean survival time)” value (Aspergillus fumigatus [6]; [8]) was 9.2 days. The “% neg (total percentage culture-negative deep tissues)” value (Aspergillus fumigatus [6]; i.v. treatment 5 mg/kg/day) was 71%, the “% neg (total percentage culture-negative deep tissues)” value (Aspergillus fumigatus [6]; oral treatment 5 mg/kg/day) was 55% and the “% surv (% survivors)” value (Aspergillus fumigatus [6]; [9]) was 30%. For the same compound, the “MST (mean survival time)” value (Aspergillus fumigatus [6]; [9]) was 7.8 days, the “CFU/g (liver)” value (Candida albicans [7]; i.v. treatment 5 mg/kg/day) was 0 mean log10 CFU/g and the “CFU/g (liver)” value (Candida albicans [7]; oral treatment 5 mg/kg/day) was 0 mean log10 CFU/g. For the same compound, the “% surv (% survivors)” value (Candida albicans [7]; [8]) was 83.3%, the “MST (mean survival time)” value (Candida albicans [7]; [8]) was 9.8 days and the “% neg (total percentage culture-negative deep tissues)” value (Candida albicans [7]; i.v. treatment 5 mg/kg/day) was 79%. For the same compound, the “% neg (total percentage culture-negative deep tissues)” value (Candida albicans [7]; oral treatment 5 mg/kg/day) was 73%, the “% surv (% survivors)” value (Candida albicans [7]; [9]) was 100% and the “MST (mean survival time)” value (Candida albicans [7]; [9]) was 10 days.
